Data published in patent publication US20240327347A1, “COMPOUNDS AND METHODS FOR TREATING 5-HT2 […]” (Board of Supervisors of Louisiana State University and …, priority 2021, published 2024).

Experiment: structure-activity relationship for anti-inflammatory activity (FIG. 3)
Conditions: SAR results
Source text: The loss or modification of the 5-methoxy results in reduced efficacy in DOx/2Cx compounds.
We determined that DOx/2Cx structures with a modified or missing 5-methoxy have reduced anti-inflammatory activity (FIG. 3). […] Without wishing to be bound by theory, the 5-methoxy of the DOx/2Cx compounds can engage residues in the binding pocket similar to those that engage the 4-OH of tryptamines, although the residues engaged by tryptamines have not been elucidated because the crystal structure of a tryptamine in the 5-HT2A receptor has not yet been published. […] Thus, without wishing to be bound by theory, a water molecule also must be present there to form a hydrogen bond bridge from the oxygen to N343.
The SAR results as shown in FIG. 3 are consistent with engagement of TM6 N343 by the 5-methoxy or 4-OH of DOx/2Cx or tryptamines, respectively, through a hydrogen bond bridge with a water molecule to produce the conformational change to recruit anti-inflammatory effectors to the activated receptor.

## CN(C)CCc1c[nH]c2ccccc12 [N,N-DMT, N,N-dimethyltryptamine]
  anti-inflammatory efficacy/activity: complete loss of efficacy
